# What was measured:
# [1] = test system: L donovani; test: Amastigote-promastigote (AM-PRO) transformation, in-vitro; type: cell-based; details: Ld.
# [2] = test system: T.b. brucei, T.b. gambiense and T.b. rhodesiense; test: Isolated bloodstream trypomastigote (TRY) in-vitro screen; type: cell-based
# Protocol: Primary screening for new trypanocides has made extensive use of rodent systems, in which host survival time is a simple indicator of drug activity. In-vitro screens have used a variety of trypomastigote types (see Table 3, below). […] Most early in-vitro screens employed a short test in which bloodstream trypomastigotes were isolated from an infected rodent and maintained for up to 24 h in a simple drug-containing media. Two significant modifications of this technique include maintaining isolated bloodstream trypomastigotes in drug-containing media for 3-4 hours at 37° C in micro-titre plates and their subsequent viability assessed by the uptake of radiolabelled precursors or motility and infectivity to mice.
# In-vitro studies on isolated bloodstream trypomastigotes were also used in the rational biochemical approaches towards the chemotherapy of T. brucei infections involving inhibitors of carbohydrate catabolism salicyl hydroxamic acid plus glycerol), of polyamine synthesis (methylgyoxal bis-guanylhydrazone and - DFMO), and of surface coat glycoprotein synthesis (Tunicamycin). In these studies, activity of the compounds are shown in-vitro and in-vivo, whereas the sensitivity of isolated bloodstream trypomastigotes to toxic oxygen radicals generated by naphthoquinones was not shown by the parasites in mice. The activity of the standard anti-trypanosomals-melarsoprol, pentamidine and suramin and tested compounds according to the present invention in in-vitro systems is shown in Table 3.
# (§1) In-vitro and in-vivo models were used to test activities of a selection of many compounds. Those activities are summarized in Tables 1-3, showing variation between systems and species. Activities measured in the MP mo and HM mo models have shown the best correlation with results obtained in hamster and mouse models.
# [3] = test system: monocyte/macrophage cultures; test: Appearance and differentiation of monocyte/macrophage cultures in Experiment la(a); type: cell-based
# Protocol: Fresh macrophage cultures were obtained by incubation of mononuclear cells obtained from a leukopak directly in the wells of a microtiter plate having 6 wells per row. After removal of non-adherent cells, each row of the adherent macrophages was infected with 10-fold serial dilutions of HIV-I, with the use of polybrene to enhance uptake of the virus. After one to two hours, the virus inoculum was removed and replaced with fresh normal growth medium. The fresh medium for each row contained a particular concentration of AZT, dideoxy cytidine (ddC), or compound la, as indicated by the left-hand column of Table la(a). The first row of wells acted as a control, and to it was added fresh medium containing none of the three drugs. Medium levels were maintained for two to four weeks to allow replication of the virus to take place, with at least one complete fluid change to remove residual virus inoculum. The contents of each well were then tested for the level of HIV p24 antigen present using a commercially available antigen capture kit employing a radio-immunoassay which can detect as little as 10'^9gm of p24 present in a sample. The above procedure was done in duplicate runs.
# [4] = test system: T. cruzi; test: T. cruzi epimastigote (EPI) in-vitro screen; type: cell-based
# Protocol: (§4) In-vitro chemotherapy screens have for many years used models involving three stages of the T. cruzi life cycle: • (1) Epimastigote. Dividing populations are easily cultivated in a range of defined and semi-defined media, but are equivalent to a vector stage of the life cycle. • (2) Trypomastigote. These are isolated from a rodent host and can be maintained as a non-dividing population for 24-48 h in media. • (3) Amastigote. Dividing populations can be cultivated in muscle cells, fibroblasts and macrophages, following infection with trypomastigotes. After the initial infection, there is normally a period of 4-5 days during which the amastigotes divide before transforming, via the epimastigote stage, back to trypomastigotes which escape from the cell. Drug activity is measured during this 4-5 day period. A dividing host cell population, low infection rate, and the presence of trypomastigotes in the overlay can complicate the interpretation of results.
# [5] = test system: T. cruzi; test: T. cruzi mouse model, in-vivo
# Source text: as §1
# [6] = test system: T. cruzi; test: T. cruzi trypomastigote (TRY) in-vitro screen; type: cell-based
# Protocol: as §4
# [7] = test system: HIV-1; test: In vitro HIV-1 infection of H9 cells, HIV-1 P24 antigen capture test; type: cell-based; details: doses of 3.75 µM or higher, Figure 13
# Protocol: In vitro infection of H9 cells was carried out as described previously. Briefly, 5x10^6 H9 cells were treated with DEAE-dextran (25 µg/mt) for 20 min. Cells were then infected with 1 ml of cell free HIV-1 (1 X1 05 RT unit) for 1 hr at 37° C. Cells were then washed and incubated for 12 days in the absence or presence of various concentrations of IPA. Every 3-4 days, the medium was replaced with fresh medium containing appropriate concentrations of drug. At various days following infection, the presence of HIV-1 in the supernatant was monitored by measuring HIV-1 P24 using the antigen capture test (DuPont@, Wilmington, DE).
# An investigation of the effect of IPA on in-vitro HIV-1 infection of H9 cells, a T cell line, was performed. The drug was added following 1 hr adsorption of the virus, and was maintained in the culture medium throughout the incubation period.
# [8] = test system: L major/L mexicana; test: Leishmania promastigote (PRO) in-vitro screen; type: cell-based; details: Lm.
# Source text: (§2) Following initial infection, the amastigote is the only form present in the mammalian host, surviving and dividing in various macrophage populations. Differences between the promastigote and amastigote in form and habitat are not matched by known biochemical dissimilarities. However, the drug susceptibility of the cultured promastigote, used in many early chemotherapy screens, contrasts markedly with that of the amastigote (see Table 1, below), most importantly to the clinically used pentavalent antimonials - sodium stibogluconate (Pentostam) and meglumine antimoniate (Glucantime).
# (§3) Amastigotes of Leishmania can be cultivated in a wide range of mammalian cells, some of which may be used in in-vitro screens. These include (1) a Sticker dog sarcoma (fibroblast) cell line, (2) transformed rodent macrophage cell lines, (3) primary isolated mouse peritoneal macrophages (MP mo), and (4) human monocyte-derived macrophages (HM mo). The methods are similar for all models. Amastigote or promastigote infected cells are maintained in a medium containing the drug for 4-7 days, at 37 C for L. donovani and 33-35 C for L. major and L. mexicana. Drug activity is then assessed by counting (I) the number of infected host cells and/or (II) the number of amastigotes/100 host cells.
# as §1
# [9] = test system: L donovani; test: Leishmania promastigote (PRO) in-vitro screen; type: cell-based; details: Ld.
# Source text: as §2, §3, §1
# [10] = test system: HIV-1; test: Experiment la(1): HIV-1 infected 81-66-45 cells; type: cell-based
smiles,measurement,setting,value
"CC(C)=CCNc1ncnc2c1ncn2[C@@H]1O[C@H](CO)[C@@H](O)[C@H]1O [IPA, N^6-(Δ^2-isopentenyl) adenosine]","Activity, AM-PRO transform-ation",[1],+ +
same,"activity, isolated bloodstream TRY",[2],+
same,appearance of monocyte/macrophage cultures,[3]; all concentrations of IPA used (3-1000 μM),appeared to be healthy
same,differentiation of small immature monocytes into large adherent macrophage cells,[3]; in the presence of IPA,did not take place
same,"activity, EPI",[4]; T. cruzi strain MR,"++(Y,MR, Sonya)"
same,"activity, EPI",[4]; T. cruzi strain Sonya,"++(Y,MR, Sonya)"
same,"activity, EPI",[4]; T. cruzi strain Y,"++(Y,MR, Sonya)"
same,"activity, mouse model",[5]; T. cruzi strain Sonya,+
same,"activity, mouse model",[5]; T. cruzi strain Y,++
same,"activity, TRY",[6]; T. cruzi strain Sonya,"+ (Y,Sonya)"
same,"activity, TRY",[6]; T. cruzi strain Y,"+ (Y,Sonya)"
same,inhibition of HIV-1 production,[7],more than five log inhibition
same,"Activity, PRO",[8],+
same,"Activity, PRO",[9],+ +
same,IC50,"[10]; Human immunodeficiency virus 1, from Figures 16 and 17, read-out: IC50 - The concentration of IPA which inhibits the replication of HIV-1 by 50%",6 µM
same,IC90,"[10]; Human immunodeficiency virus 1, from Figures 16 and 17, read-out: IC90 - The concentration of IPA which inhibits the replication of HIV-1 by 90%",10 µM

# — patent publication EP0462621A2, “Use of particular compounds for manufacture of pharmaceutical formulations for treatment against various parasites, mycoplasmas, other indications and other infections” (Prendergast, Patrick Thomas, priority 1990, dated 1991)
